As usually defined, the IC50 is the concentration needed to halve the response being measured. Low readings indicate greater potency in that assay, high ones weaker potency in that assay. One may read the half-life as the time needed for the level to fall by half in the phase considered. For orientation: inhibition means the relative decrease from the control value, in per cent.

Series [1] is described as follows: GSH reactivity assay for model compounds (LC/MS). The series is classed as physicochemical. The note with it: 100 μM 1i and 5 mM GSH in PBS buffer, pH 8, 37 °C (n = 3).
Description: (§1) LC/MS runs were performed on a Waters ACUITY UPLC class H instrument, in positive ion mode using electrospray ionization. […] The column was held at 40 °C, and the autosampler at 10 °C. Mobile phase A was 0.1% formic acid in the water, and mobile phase B was 0.1% formic acid in acetonitrile. The run flow was 0.3 mL/min. […] The column was held at 40 °C, and the autosampler at 10 °C. Mobile solution A was 0.1% formic acid in the water, and mobile phase B was 0.1% formic acid in acetonitrile.
All solvents were bubbled with argon. Reaction mixtures were kept at 37 °C with shaking. At various times 5 μL from the reaction mixture was injected into the LC/MS.
A further series relates to Mino cells. Briefly: In-gel fluorescence activity-based profiling (in situ proteomic labeling). Type of series: cell-based. Particulars: Mino cells treated for 2 h, TAMRA-azide click. On the procedure:
Mino cells were treated for 2 h with either 0.1% DMSO or the indicated concentrations of IA-alkyne, 2a, 2b, and 2c. The cells were lysed with RIPA buffer (Sigma), and protein concentration was determined using the BCA protein assay (Thermo Fisher Scientific). Lysates were then diluted to 2 mg/mL in PBS and clicked to TAMRA-azide (click chemistry tools). Click reaction was performed using a final concentration of 40 μM TAMRA-azide, 3 mM CuSO4, 3 mM tris(3-hydroxypropyltriazolylmethyl)amine (THPTA, Sigma), and 3.7 mM sodium L-ascorbate (Sigma) in a final volume of 60 μL. The samples were incubated at 25 °C for 2 h. A 20 μL amount of 4× LDS sample buffer (NuPAGE, Thermo Fischer Scientific) was added followed by a 10 min incubation at 70 °C. The samples were then loaded on a 4–20% Bis-Tris gel (SurePAGE, GeneScript) and imaged using a Typhoon FLA 9500 scanner.

The target of another series is BTK kinase domain (Homo sapiens, UniProt Q06187). Briefly: Kinetic labeling of BTK by intact protein LC/MS. Type of series: binding.
Chain of BTK kinase domain (Q06187 402-655 limits assumed): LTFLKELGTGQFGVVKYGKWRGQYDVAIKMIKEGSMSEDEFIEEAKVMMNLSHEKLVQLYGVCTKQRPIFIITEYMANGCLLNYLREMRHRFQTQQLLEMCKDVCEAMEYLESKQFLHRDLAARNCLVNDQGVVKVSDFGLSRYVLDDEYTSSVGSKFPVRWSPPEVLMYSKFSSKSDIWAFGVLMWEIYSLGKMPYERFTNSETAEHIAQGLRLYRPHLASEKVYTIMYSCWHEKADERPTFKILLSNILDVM
For another series, the target named is EGFR (Homo sapiens, UniProt P00533). Briefly: In vitro kinase activity assay (Nanosyn). The series is classed as biochemical. Particulars: for IC50: rounded, 2 h preincubation, 5 μM ATP.
Chain of EGFR (P00533 25-1210): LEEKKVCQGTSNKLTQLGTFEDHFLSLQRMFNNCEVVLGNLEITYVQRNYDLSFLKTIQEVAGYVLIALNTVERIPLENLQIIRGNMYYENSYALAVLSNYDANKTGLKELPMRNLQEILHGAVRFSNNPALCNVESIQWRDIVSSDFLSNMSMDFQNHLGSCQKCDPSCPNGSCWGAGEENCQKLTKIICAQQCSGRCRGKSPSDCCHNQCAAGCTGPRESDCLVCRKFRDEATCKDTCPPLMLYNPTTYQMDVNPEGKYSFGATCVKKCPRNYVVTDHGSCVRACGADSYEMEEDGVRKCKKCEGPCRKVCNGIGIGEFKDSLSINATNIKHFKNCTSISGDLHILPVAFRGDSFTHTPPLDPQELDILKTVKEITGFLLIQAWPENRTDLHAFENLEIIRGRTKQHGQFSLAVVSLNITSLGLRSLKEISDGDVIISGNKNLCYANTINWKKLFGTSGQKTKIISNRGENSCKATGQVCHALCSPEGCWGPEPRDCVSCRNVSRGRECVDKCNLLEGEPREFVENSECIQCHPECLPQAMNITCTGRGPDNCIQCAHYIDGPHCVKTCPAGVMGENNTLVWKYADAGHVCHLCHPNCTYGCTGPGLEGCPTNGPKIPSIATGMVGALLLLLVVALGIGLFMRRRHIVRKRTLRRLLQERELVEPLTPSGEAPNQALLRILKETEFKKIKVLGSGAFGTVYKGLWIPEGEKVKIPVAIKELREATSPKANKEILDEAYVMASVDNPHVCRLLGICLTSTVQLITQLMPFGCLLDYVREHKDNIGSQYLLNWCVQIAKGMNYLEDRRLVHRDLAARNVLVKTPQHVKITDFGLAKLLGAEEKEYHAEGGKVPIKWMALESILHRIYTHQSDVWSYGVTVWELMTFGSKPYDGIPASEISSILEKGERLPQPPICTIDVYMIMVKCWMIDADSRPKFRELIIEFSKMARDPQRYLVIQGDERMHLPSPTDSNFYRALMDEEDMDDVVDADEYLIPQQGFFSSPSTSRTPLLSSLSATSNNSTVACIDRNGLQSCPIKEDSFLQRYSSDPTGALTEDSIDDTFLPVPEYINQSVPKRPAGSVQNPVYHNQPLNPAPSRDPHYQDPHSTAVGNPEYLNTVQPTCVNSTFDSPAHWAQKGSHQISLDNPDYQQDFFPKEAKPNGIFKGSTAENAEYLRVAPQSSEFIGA
Another series has as its system primary mouse B cells. Description: B-cell response experiment (anti-IgM activation, CD86 by flow cytometry). The note with it: representative FACS plot, concentration not given. The series is classed as cell-based. On the technique in general: A flow cytometer gives signals particle by particle.
The target of the next series is wild-type BTK (Homo sapiens, UniProt Q06187). Briefly: In vitro kinase activity assay (Nanosyn).
Chain of wild-type BTK (Q06187 whole entry): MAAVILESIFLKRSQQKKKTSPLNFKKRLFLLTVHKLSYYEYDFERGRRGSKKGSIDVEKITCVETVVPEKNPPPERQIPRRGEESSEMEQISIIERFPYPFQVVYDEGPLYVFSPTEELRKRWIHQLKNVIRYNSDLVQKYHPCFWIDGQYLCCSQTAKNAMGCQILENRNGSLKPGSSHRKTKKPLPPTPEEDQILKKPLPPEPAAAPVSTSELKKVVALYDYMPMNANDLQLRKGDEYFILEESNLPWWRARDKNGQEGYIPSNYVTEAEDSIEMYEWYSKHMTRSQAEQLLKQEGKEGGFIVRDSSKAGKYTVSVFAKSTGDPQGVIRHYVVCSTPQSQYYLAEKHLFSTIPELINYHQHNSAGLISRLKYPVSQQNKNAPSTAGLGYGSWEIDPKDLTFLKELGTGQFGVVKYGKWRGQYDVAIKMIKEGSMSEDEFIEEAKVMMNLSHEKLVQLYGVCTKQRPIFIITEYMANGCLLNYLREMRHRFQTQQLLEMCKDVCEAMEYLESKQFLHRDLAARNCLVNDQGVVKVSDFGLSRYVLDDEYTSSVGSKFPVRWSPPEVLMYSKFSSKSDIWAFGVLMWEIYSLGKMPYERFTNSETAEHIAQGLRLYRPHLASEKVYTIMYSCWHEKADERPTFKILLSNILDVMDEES
The target in the next series is BLK (Homo sapiens, UniProt P51451). Description: In vitro kinase activity assay (Nanosyn).
Chain of BLK (P51451 whole entry, species assumed): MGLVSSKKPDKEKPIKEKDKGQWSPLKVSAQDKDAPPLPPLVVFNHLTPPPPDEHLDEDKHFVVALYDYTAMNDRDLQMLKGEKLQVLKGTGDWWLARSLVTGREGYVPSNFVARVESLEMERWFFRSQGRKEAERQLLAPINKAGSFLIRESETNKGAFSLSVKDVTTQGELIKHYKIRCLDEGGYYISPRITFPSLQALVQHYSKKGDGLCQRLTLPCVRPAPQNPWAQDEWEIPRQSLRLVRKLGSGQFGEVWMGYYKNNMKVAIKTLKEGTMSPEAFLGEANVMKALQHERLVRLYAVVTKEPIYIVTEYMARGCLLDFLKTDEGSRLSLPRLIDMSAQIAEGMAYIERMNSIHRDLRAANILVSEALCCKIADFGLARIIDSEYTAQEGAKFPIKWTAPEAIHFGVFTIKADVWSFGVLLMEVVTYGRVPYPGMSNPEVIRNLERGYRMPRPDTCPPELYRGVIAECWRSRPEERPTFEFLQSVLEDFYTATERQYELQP
Another series addresses T1, BMX (Homo sapiens, UniProt P51813).
T1 sequence (P51813 1-675): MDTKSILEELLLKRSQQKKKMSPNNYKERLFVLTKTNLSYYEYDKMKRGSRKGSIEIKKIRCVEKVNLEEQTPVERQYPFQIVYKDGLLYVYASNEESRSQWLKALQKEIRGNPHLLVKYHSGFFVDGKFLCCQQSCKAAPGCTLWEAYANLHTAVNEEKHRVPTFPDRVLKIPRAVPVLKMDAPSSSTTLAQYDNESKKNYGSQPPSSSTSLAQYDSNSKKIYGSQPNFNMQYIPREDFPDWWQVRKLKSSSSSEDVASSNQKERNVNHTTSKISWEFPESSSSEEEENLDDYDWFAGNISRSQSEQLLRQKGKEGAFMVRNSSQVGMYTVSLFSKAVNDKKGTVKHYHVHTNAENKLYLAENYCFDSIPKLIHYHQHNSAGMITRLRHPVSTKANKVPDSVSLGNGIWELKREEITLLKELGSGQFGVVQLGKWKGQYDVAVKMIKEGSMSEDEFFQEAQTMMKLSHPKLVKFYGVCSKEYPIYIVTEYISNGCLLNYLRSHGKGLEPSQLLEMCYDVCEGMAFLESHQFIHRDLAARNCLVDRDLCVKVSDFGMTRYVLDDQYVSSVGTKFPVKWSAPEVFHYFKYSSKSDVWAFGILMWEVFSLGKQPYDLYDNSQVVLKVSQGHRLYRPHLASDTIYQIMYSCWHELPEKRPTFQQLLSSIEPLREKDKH
Briefly: In vitro kinase activity assay (Nanosyn).

The target of a further series is ERBB2 (Homo sapiens, UniProt P04626). Description: In vitro kinase activity assay (Nanosyn).
Chain of ERBB2 (P04626 23-1255, species assumed): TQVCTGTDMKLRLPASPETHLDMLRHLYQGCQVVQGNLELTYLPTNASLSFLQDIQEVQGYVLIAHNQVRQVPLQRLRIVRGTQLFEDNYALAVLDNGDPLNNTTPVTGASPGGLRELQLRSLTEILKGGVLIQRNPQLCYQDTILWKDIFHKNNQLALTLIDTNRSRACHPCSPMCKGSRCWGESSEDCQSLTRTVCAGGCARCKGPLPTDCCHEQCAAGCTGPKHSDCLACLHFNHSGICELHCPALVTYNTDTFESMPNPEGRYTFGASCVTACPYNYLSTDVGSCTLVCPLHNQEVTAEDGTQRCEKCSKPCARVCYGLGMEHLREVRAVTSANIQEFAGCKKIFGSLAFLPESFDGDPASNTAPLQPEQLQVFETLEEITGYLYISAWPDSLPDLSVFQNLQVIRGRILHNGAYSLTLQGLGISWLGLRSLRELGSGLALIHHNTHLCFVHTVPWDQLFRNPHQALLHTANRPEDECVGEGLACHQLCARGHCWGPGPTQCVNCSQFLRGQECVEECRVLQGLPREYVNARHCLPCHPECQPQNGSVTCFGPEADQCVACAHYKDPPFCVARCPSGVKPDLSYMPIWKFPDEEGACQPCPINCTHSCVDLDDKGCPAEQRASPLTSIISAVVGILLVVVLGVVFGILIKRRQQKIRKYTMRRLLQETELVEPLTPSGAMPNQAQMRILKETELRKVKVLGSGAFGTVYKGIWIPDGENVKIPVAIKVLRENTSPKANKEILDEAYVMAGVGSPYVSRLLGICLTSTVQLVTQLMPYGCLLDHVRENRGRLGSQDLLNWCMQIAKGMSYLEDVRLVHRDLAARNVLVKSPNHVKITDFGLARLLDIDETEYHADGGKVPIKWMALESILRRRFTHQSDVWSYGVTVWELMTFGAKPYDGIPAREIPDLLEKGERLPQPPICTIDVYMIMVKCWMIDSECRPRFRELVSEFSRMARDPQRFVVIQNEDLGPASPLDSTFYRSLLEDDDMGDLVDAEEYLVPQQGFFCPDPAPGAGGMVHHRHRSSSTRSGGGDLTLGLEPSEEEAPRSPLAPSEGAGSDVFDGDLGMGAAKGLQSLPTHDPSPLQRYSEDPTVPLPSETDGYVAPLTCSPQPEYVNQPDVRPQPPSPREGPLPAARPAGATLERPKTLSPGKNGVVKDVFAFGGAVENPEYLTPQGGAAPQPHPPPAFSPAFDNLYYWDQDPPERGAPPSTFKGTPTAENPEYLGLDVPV
The next series addresses T2, ITK (Homo sapiens, UniProt Q08881).
T2 sequence (Q08881 1-620): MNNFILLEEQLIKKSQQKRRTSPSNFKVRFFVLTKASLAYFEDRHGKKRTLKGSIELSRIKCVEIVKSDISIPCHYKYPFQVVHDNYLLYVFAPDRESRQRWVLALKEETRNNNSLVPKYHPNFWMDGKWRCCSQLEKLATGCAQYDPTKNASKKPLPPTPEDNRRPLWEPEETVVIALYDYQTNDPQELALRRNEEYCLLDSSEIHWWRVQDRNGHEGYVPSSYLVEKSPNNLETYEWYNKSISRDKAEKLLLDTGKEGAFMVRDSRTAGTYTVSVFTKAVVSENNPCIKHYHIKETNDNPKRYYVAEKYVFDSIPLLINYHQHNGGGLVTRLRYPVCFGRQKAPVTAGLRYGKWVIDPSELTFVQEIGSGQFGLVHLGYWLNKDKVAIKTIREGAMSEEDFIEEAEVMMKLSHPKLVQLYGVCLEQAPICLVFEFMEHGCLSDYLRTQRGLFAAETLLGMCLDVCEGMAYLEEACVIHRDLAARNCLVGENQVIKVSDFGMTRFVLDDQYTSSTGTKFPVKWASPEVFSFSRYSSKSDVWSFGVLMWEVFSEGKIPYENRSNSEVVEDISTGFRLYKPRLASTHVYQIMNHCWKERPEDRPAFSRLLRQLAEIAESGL
Description: In vitro kinase activity assay (Nanosyn).

A short description of series [2]: GSH reactivity assay for ibrutinib derivatives (LC/MS). The series is classed as physicochemical. Particulars: 5 mM GSH in phosphate buffer/DMF 9:1, 100 μM compound, buffer pH 8.0:DMF 9:1, 37 °C.
Description: as §1
All solvents were bubbled with argon.
Series [3] addresses T3, BTK (Homo sapiens, UniProt Q06187). Description: Fluorescence intensity measurement of CoLDR turn-on probe. The series is classed as binding. The note with it: 2 μM probe, 2 μM BTK.
A further series addresses BSA (Bos taurus, UniProt P02769). Briefly: Turn-on fluorescence selectivity control with BSA. The series is classed as binding. The note with it: 10 μM BSA with 2 μM 3k. From the text: The fact that a specific leaving group is released as a function of selective binding of a target protein can be used to functionalize irreversible inhibitors, for example as turn-on fluorescent probes. To assess the applicability and generality of this approach, we chose three therapeutic targets for which acrylamide inhibitors are available: BTK, EGFR, and K-RAS^G12C as model systems. Initially, we treated 3k (Figure 6A) with BTK, measured the released coumarin fluorescence, and validated the labeling via LC/MS (Figure 6B,C). […] We could also […] the rate of the reaction by using 20:1 equiv of protein:probe (Figure S16). […] The release can also be inhibited by preincubation of BTK with iodoacetamide alkyne (IAA; Figure S17B).
Figure S17. […] A. 10 μM BSA with 2
B. 2 μM BTK fully labeled with IAA (red) compared to 2 μM non labeled BTK (blue) with 2 μM 3k. The lack of signal for the labeled BTK indicated the fluorescence is triggered by a free cysteine.
(1 picture or pasted object on this page, not shown here)

For series [4], the target named is T3, BTK. Briefly: Chemiluminescence emission of probe 3l with BTK. Particulars: 2 μM probe, 2 μM BTK.
Series [5] concerns the target T3, BTK. Briefly: HTS with the chemiluminescent probe 3l (%BTK binding inhibition). The note with it: 10 μM compound, 0.75 μM BTK.
For series [6], the target named is T3, BTK. Description: biochemical. Particulars: read-out: BTK inhibition (%), 0.75 uM BTK, […] probe 3l, 15 min preincubation.
Series [7] has as its target T3, BTK. Description: biochemical. Further details: HTS: BTK preincubated 15 min with compound, then chemiluminescent covalent probe 3l; loss of luminescence at 30 min. Particulars: 0.75 uM BTK, 1.5 uM probe 3l, 15 min preincubation.
Setting [8] is: BTK IC50, in vitro kinase activity assay.
Where [9] appears, read: BTK IC50, rounded, 2 h preincubation, 5 μM ATP.

“Also recorded” adds a separate entry of the source. Where two headings read alike, the source gives them in different places. Bounds are passed on as bounds.

T3 sequence (Q06187 402-655 limits assumed): as the sequence (Q06187 402-655 limits assumed) above
Chain of BSA (P02769 25-607): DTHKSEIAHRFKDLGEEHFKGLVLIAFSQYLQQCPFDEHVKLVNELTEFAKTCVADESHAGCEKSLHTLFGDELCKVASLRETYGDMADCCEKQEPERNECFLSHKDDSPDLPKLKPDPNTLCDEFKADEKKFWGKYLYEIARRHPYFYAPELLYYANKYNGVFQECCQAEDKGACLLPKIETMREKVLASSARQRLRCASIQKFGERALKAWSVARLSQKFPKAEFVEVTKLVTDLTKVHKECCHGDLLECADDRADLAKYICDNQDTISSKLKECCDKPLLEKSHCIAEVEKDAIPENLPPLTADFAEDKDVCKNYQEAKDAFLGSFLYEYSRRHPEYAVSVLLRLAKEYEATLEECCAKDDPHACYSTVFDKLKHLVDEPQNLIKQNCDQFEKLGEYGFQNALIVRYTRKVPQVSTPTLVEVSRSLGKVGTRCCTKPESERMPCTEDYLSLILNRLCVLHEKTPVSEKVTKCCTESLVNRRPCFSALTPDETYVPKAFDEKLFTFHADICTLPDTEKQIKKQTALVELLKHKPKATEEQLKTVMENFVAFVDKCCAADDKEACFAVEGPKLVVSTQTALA
Description for BLK: (§2) Kinase reactions are assembled in 384-well plates (Greiner) in a total volume of 20 μL. Test compounds were diluted in DMSO to a final concentration, while the final concentration of DMSO in all assays was kept at 1%. The compounds were incubated with the kinases for 2 h. […] The reaction was initiated by 2-fold dilution into a solution containing 5 μM ATP and 1 μM substrate in the kinase buffer
Description for BMX: as §2
Description for EGFR: as §2
in 100 mM HEPES, pH 7.5, 0.1% BSA, 0.01% Triton X-100, 1 mM DTT, 10 mM MnCl2.
initiated by 2-fold dilution into a solution containing 5 μM ATP and 1 μM substrate in the kinase buffer.
Description for ERBB2: as §2
Description for ITK: as §2
Description for wild-type BTK: as §2

As for `C=C(COc1ccc2ccc(=O)oc2c1)C(=O)NCc1ccccc1` [1i], in series [1], the “rate of depletion of 1i, k” value was found to be 0.24 h⁻¹ and the “rate of formation of coumarin, k” value came out at 0.24 h⁻¹.

Consider `C#CCCNC(=O)C(=C)COc1ccc2ccc(=O)oc2c1` [2a], for which, in the series with Mino cells, the “in situ proteomic labeling (in-gel fluorescence)” value is “labeled more proteins compared to 2b”.

For `C#CCCNC(=O)C(=C)CN(C)c1ccccc1` [2c], in the series on Mino cells, the “in situ proteomic labeling (in-gel fluorescence)” value was “completely inactive”.

Turning to `C=C(CN1CCCCC1)C(=O)N1CCC[C@@H](n2nc(-c3ccc(Oc4ccccc4)cc3)c3c(N)ncnc32)C1` [3c], the BTK labeling mechanism entry at BTK kinase domain is reported as “exclusively through addition with no substitution product”. In addition, the IC50 against EGFR was 7 nM; on wild-type BTK (setting [8]) it was less than 0.1 nM; against wild-type BTK (setting [9]), 0.1 nM; on BLK, 0.1 nM; against BMX, 0.3 nM; against ERBB2 it was 33 nM. Moreover, the IC50 on ITK came out at 43 nM. For the same compound, the “B220+ cells-activated (CD86 positive)” value in the series on primary mouse B cells worked out at 81.6%.

In turn, `C=C(CN(C)c1ccccc1)C(=O)N1CCC[C@@H](n2nc(-c3ccc(Oc4ccccc4)cc3)c3c(N)ncnc32)C1` [3d] displayed a half-life at 100 μM in series [2] greater than 100 h. In addition, at wild-type BTK, the IC50 is 5.6 nM.

The compound `C=C(CNCc1ccccc1)C(=O)N1CCC[C@@H](n2nc(-c3ccc(Oc4ccccc4)cc3)c3c(N)ncnc32)C1` [3e] came in with a half-life at 100 μM in series [2] greater than 100 h. Also, the BTK labeling mechanism entry on BTK kinase domain is recorded as “exclusively through addition with no substitution product”. The IC50 was 3 nM against EGFR; less than 0.1 nM on wild-type BTK (setting [8]); 0.1 nM against wild-type BTK (setting [9]); 0.1 nM on BLK; 0.4 nM against BMX; 13 nM at ERBB2. In addition, the 50% inhibitory concentration (IC50) against ITK was determined as 30 nM. In addition, on EGFR (selectivity ratio of IC50), the EGFR/BTK was 36. Further, in the series on primary mouse B cells, the “B220+ cells-activated (CD86 positive)” value stood at 77.3%. On BLK (selectivity ratio of IC50), the BLK/BTK is recorded as 1. Further, at BMX (selectivity ratio of IC50), the BMX/BTK is recorded as 5. Further, the ERBB2/BTK at ERBB2 (selectivity ratio of IC50) worked out at 169. For the same compound, the ITK/BTK on ITK (selectivity ratio of IC50) worked out at 383.

Consider `C=C(COC(C)=O)C(=O)N1CCC[C@@H](n2nc(-c3ccc(Oc4ccccc4)cc3)c3c(N)ncnc32)C1` [3h], for which the half-inhibitory concentration (IC50) was 28 nM against EGFR; less than 0.1 nM against wild-type BTK (setting [8]); 0.1 nM against wild-type BTK (setting [9]); 0.6 nM on BLK; 0.3 nM on BMX; 196 nM against ERBB2. Besides, it took 295 nM to reach half-maximal inhibition at ITK (IC50). The “B220+ cells-activated (CD86 positive)” value with primary mouse B cells is on record as 82.9%.

In the case of `C=C(COC(=O)OC)C(=O)N1CCC[C@@H](n2nc(-c3ccc(Oc4ccccc4)cc3)c3c(N)ncnc32)C1` [3i], the half-inhibitory concentration (IC50) amounted to 31 nM against EGFR; 0.8 nM against BLK; 0.4 nM at BMX; 172 nM on ERBB2; 232 nM against ITK. The “B220+ cells-activated (CD86 positive)” value in the series with primary mouse B cells came to 85.0%.

For the compound `C=C(COc1ccc2ccc(=O)oc2c1)C(=O)N1CCC[C@@H](n2nc(-c3ccc(Oc4ccccc4)cc3)c3c(N)ncnc32)C1` [3k], at BTK [3], the “increase of fluorescence intensity at 435 nm upon addition of BTK” value turned out to be 30 fold and the “time to saturation of fluorescence” value is reported as no more than 10 min. The “turn-on fluorescence with BSA” value at BSA was “no reaction; also recorded: does not result in increased fluorescence”. The same compound displayed a half-maximal inhibitory concentration (IC50) against wild-type BTK (BTK IC50, 0.6 nM BTK, 5 μM ATP, Figure 4C) of 1 nM.

For `C=C(COc1c(/C=C/C(=O)OC)ccc(C2(OC)OOC23C2CC4CC(C2)CC3C4)c1Cl)C(=O)N1CCC[C@@H](n2nc(-c3ccc(Oc4ccccc4)cc3)c3c(N)ncnc32)C1` (some centres unmarked) [3l], at BTK [4], the “chemiluminescence enhancement by BTK (total photon counts vs probe alone)” value stood at 90 fold and the “time to maximum chemiluminescence signal” value is no more than 20 min.

With `COc1c/c(=C2\C=c3ccccc3=N2)[nH]/c1=C\c1[nH]c(C)cc1C` [PCM-0094986], the “BTK inhibition (%)” value at BTK [5] turned out to be 133.1%. The inhibition at 10 µM on BTK [6] was 133%.

Take `Cc1cc(-c2ccc(N=Nc3ccc4c(S(=O)(=O)O)cc(S(=O)(=O)O)c(N)c4c3O)c(C)c2)ccc1N=Nc1ccc2c(S(=O)(=O)O)cc(S(=O)(=O)O)c(N)c2c1O` [PCM-0214845]: the “BTK inhibition (%)” value at BTK [5] is 125.3%. The inhibition at 10 µM on BTK [6] stood at 125%.

Consider `CC(C)[C@]12O[C@H]1[C@@H]1O[C@@]13[C@@]1(C)CCC4=C(COC4=O)[C@@H]1C[C@@H]1O[C@@]13C2=O` [PCM-0216318], for which, at BTK [7], the inhibition at 10 µM was -26.3%.

On to `C[C@]12CC[C@H](O)C[C@@]1(O)CC[C@@H]1[C@@H]2CC[C@]2(C)[C@@H](C3=CC(=O)OC3)CC[C@]12O` [PCM-0216443], for which, on BTK [7], the inhibition at 10 µM came out at 6.2%.
